Read-outs that look alike come from different tables or passages of the source.
Legend:
[1] = tested on: WIN-site dependent transcripts; test: Bulk RNA-seq in L0 and DI318 CSCs; assay type: cell-based, human; conditions: for GSEA NES against MV4:11 C16-regulated gene set: 72 hours
Protocol: Bulk RNA-seq was performed at MedGenome Inc. using the Illumina Stranded mRNA Library Prep Kit and sequencing at 20M paired-end read-depth on a NovaSeq 6000 (PE100). The raw bulk RNA-seq paired end (R1-R2, 2 × 100 bp) sequencing fastq data was first subjected to the quality check analysis using FastQC (v0.11.9). […] Further, quality filtered reads were subjected to the alignment employing Rsubread (v2.16.1) align function with human genome reference build GRCh38 ([90], [91]). The mapped binary alignment map (BAM) files were indexed using samtools (v1.16.1) ([92]), and gene-wise read counts were summarized applying featureCounts function from Rsubread, where inbuilt hg38 annotation was used and duplicated reads were ignored. Furthermore, gene symbols were obtained using org.Hs.eg.db (v3.15.0) annotation package operating on ENTREZIDs from count table. Respectively, edgeR (v3.38.4) and limma-voom (v3.52.4) packages were employed to accomplish differential transcriptional regulation analysis ([93]–[95]). Briefly, constructed DGEList object (DGEList function), design matrix (model.design), and contrast matrix (makeContrasts) was defined, filtered low counts (filterByExpr), and trimmed mean of M-values (TMM) normalization (calcNormFactors) was done. Later, log2 counts per million reads (logCPM) transformation, model fitting and differential expression analysis was performed using limma-voom (voomWithQualityWeights, lmFit, contrasts.fit), empirical Bayes moderated t-statistics (eBayes), and TREAT method (treat, decideTests, topTreat) considering log fold-change (logFC) (0.5) threshold. Genes with |log2FC| > 0.5 and FDR adjusted P value cutoff (≤0.01) were considered as differentially expressed genes (DEGs). Gene ontology (GO) and pathway enrichment analysis was accomplished implementing ShinyGO (v0.77) ([96]). DEGs volcano plots were depicted utilizing EnhancedVolcano (v1.16.0) package.

DI318 CSCs = test: 7-day CTG viability assay (GI50, cross-titrations, irradiation) in DI318; assay type: cell-based; conditions: Homo sapiens
Protocol: For GI50 determination, compounds were stamped in technical triplicate, while for synergy cross-titrations dose-response matrices were prepared in technical duplicate. Different CSC lines, grown in suspension as spheroids, were split with Accutase and seeded directly on top of the prestamped compounds (50 μL of NBMc and 700 cells/well). The outer 4 rows (A,B and O,P row IDs) and 4 columns (1,2 and 23,24 column IDs) were filled with 80 μL of PBS to minimize evaporation. Cells were incubated with compounds for 7 days at 37°C/5% CO2 prior to the addition of 25 μL/well Cell-Titer Glo (Promega) and luminescence quantification on a Revvity EnVision plate reader. […] For the cross-titrations of 2 compounds, synergy scores were calculated using the MuSyC webserver ([79]). […]
antagonist (p53 activator) RG7112 following either 0 Gy or 2 Gy irradiation. Mean values are presented from a single biological replicate conducted in technical triplicate. Follow- […]
Cell viability was quantified as described in the Materials and Methods four days post-irradiation (seven days total). The

WDR5 = WDR5 (Homo sapiens, UniProt P61964); test: WDR5 TR-FRET binding assay (displacement of labeled WIN-site peptide); set-up: human WDR5 residues Ser22-Cys334 were codon optimized for E. coli; made in house; host or cells: E. coli T7 Express lysY/Iq (New England Biolabs), pET27 plasmid
Protocol: Recombinant human WDR5 was cloned, expressed, and purified as previously described ([37]). Briefly, human WDR5 residues Ser22-Cys334 were codon optimized for E. coli and cloned into a pET27 plasmid downstream of a SUMO-protease cleavable NT-His6-SUMO fusion. […] Induced cultures were pelleted; resuspended in 1X PBS pH 7.4, 300 mM NaCl, 20 mM imidazole, 5 mM β-Me, and 10% glycerol; and lysed via sonication. […] His-SUMO-WDR5 used in the TR-FRET assay was further purified via size exclusion chromatography using 1X PBS pH 7.4, 300 mM NaCl, 5 mM β-Me running buffer, concentrated to 1–2 mg/mL, aliquoted, and froze at –80°C for storage. Tag free WDR5 used for crystallography was dialyzed overnight with SUMO protease and passed over an NiNTA column to remove the His6-SUMO tag. Tag free WDR5 was further purified via size exclusion chromatography using 20 mM HEPES pH 7.0, 250 mM NaCl, and 5 mM DTT; concentrated to 10 mg/mL; aliquoted; and frozen at –80°C for storage.
Inhibitor Ki values were measured using a previously published competitive TR-FRET assay ([37]). […] The reported Ki values were calculated from at least 3 biological replicates completed in technical quadruplicate.

[2] = MDCK passive permeability; assay type: in vitro ADME, canine; conditions: dog, MDCK
P-glycoprotein (MDR1) = target: T1, P-glycoprotein (MDR1) (Homo sapiens, UniProt P08183); test: MDR1-MDCK permeability and efflux; assay type: in vitro ADME; conditions: for Papp A→B at 120 min, 5 μM / Papp B→A at 120 min, 5 μM / recovery at 120 min, 5 μM: dog, MDCK-MDR1, pH 7.4, 5 μM
T1 construct: host or cells: MDR1-MDCK cell monolayers
Protocol: Test Direction Recovery Papp (10-6 cm/s) Efflux Brain
Article (%) R1 R2 AVG Ratio Penetration
Supplemental Figure 4. Blood-brain barrier (BBB) penetration potential using MDR1-MDCK cell monolayers. All P-glycoprotein (MDR1) permeability and efflux studies were conducted at Absorption Systems (parent company Pharmaron). In brief, MDR1-MDCK monolayers were grown to confluence on collagen-coated, microporous membranes in 12-well assay plates. The permeability assay buffer was Hanks’ balanced salt solution containing 10 mM HEPES and 15 mM glucose at a pH of 7.4. The buffer in the receiver chamber also contained 1% bovine serum albumin. The dosing solution concentration was 5 μM of test article in the assay buffer. Cell monolayers were dosed on the apical side (A-to-B) or basolateral side (B-to-A) and incubated at 37°C with 5% CO2 in a humidified incubator. Samples were taken from the donor and receiver chambers after 120 minutes. Each determination was performed in duplicate. The flux of lucifer yellow was also measured post-experimentally for each monolayer to ensure no damage was inflicted to the cell monolayers during the flux period. All samples were assayed by LC-MS/MS using electrospray ionization. Efflux ratio (ER) is defined as Papp (B-to-A) / Papp […]

In situ brain perfusion = assay type: in vivo, mice; conditions: 2-minute perfusion, 10 μM
Protocol: To evaluate the permeability across the blood-brain barrier of WDR5 inhibitors in the absence of hepatic clearance, we utilized the in situ brain perfusion technique. Mice were anesthetized via i.p. injection of 100 mg/kg ketamine and 80 mg/kg xylazine. The peritoneal cavity was exposed, the descending aorta was clamped, and the right atrium was cut to prevent venous return to the heart. A 28G butterfly winged infusion catheter (Terumo Medical Care Solutions) was inserted into the left ventricle and mice were perfused with a modified physiological buffer containing 10 μM WDR5 inhibitor ([99]). […] To determine brain uptake of WDR5 inhibitors, mice were perfused for 120 seconds. The experiment was concluded by decapitation of the mouse. Following termination, the brain was rapidly removed and placed on ice. Inhibitor concentration in both brain and blood was determined by liquid chromatography tandem mass spectroscopy (Q2 Solutions). The unidirectional uptake transfer constant (Kin) was calculated by the following relationship ([100]):
Where Qbr is the concentration of WDR5 inhibitor in brain (ng/g) corrected for residual inhibitor remaining in cerebrovasculature at the end of the perfusion time frame, Cpf is the perfusion fluid concentration of WDR5 inhibitor (ng/mL), T is the time length of the perfusion experiment, and V0 is the vascular volume of the WDR5 inhibitor (mL/g).

[3] = DI318 + RAD (2 Gy), read-out: log(GI50) (converted)
[4] = […], DI318, 7-day CTG, pGI50 = −log10[GI50(M)], read-out: pGI50 (converted)

T1 sequence (P08183 whole entry): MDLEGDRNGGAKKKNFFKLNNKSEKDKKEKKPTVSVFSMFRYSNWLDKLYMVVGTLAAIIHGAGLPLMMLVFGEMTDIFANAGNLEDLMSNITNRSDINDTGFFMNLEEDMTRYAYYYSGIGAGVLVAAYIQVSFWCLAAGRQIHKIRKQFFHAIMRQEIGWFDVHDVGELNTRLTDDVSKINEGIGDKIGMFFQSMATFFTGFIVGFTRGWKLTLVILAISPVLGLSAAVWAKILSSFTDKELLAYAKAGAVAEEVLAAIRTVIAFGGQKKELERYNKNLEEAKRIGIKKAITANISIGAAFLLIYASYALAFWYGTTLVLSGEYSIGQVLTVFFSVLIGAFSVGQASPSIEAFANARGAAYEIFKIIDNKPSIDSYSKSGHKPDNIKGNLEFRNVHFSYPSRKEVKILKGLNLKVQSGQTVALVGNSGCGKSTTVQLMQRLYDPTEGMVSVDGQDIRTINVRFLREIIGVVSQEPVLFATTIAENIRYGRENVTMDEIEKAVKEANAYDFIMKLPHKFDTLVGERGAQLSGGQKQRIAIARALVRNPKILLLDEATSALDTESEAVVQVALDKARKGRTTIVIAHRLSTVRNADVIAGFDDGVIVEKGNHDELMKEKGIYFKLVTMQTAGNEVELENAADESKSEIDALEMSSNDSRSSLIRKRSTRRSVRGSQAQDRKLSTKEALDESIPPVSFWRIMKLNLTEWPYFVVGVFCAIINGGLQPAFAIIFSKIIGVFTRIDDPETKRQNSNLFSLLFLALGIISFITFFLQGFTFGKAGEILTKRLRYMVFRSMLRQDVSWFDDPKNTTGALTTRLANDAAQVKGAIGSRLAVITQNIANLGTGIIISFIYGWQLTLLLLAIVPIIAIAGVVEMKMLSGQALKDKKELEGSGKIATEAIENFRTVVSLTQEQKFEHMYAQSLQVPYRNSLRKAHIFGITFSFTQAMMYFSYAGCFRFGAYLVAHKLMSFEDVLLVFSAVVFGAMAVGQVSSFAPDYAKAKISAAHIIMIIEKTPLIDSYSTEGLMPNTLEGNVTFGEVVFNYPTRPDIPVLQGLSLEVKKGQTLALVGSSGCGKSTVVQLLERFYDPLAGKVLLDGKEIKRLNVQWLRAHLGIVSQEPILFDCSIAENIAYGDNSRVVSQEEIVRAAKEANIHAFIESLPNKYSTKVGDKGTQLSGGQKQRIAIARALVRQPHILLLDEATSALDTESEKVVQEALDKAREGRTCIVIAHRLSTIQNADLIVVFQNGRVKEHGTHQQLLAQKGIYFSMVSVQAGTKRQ

COc1cc(Cn2nnc3c2CCc2c(-c4cn(C)nc4C(F)(F)F)cc(Cn4ccnc4C)cc2-3)cc(OC)c1 [C3TD078]
C16 DEGs also downregulated by C3TD078 ([1]; DI318, 200 nM, 72 hours (118/150)): 79%
C16 DEGs also downregulated by C3TD078 ([1]; L0, 200 nM, 72 hours (91/102)): 89%
GI50 (DI318 CSCs; [3]): 6.31e-07 M
GI50 (DI318 CSCs; [4]): 2e-06 M
Ki (WDR5): 0.03 ± 0.002 nM
Papp A→B [2]: 4.9 ×10⁻⁶ cm/s
Papp A→B ([2]; favorable permeability): > 2 ×10⁻⁶ cm/s

COc1cc(Cn2nnc3c2CCc2c-3cc(Cn3ccnc3C)cc2C2CC2)ccc1F [C3TD343]
Brain Penetration Classification (P-glycoprotein (MDR1)): Low
efflux by P-glycoprotein (P-glycoprotein (MDR1); MDR1-MDCK permeability studies): strongly effluxed
Papp A→B at 120 min, 5 μM (P-glycoprotein (MDR1); read-out: Papp A-to-B, AVG): 0.113 ×10⁻⁶ cm/s
Papp A→B at 120 min, 5 μM (P-glycoprotein (MDR1); read-out: Papp A-to-B, R1): 0.131 ×10⁻⁶ cm/s
Papp A→B at 120 min, 5 μM (P-glycoprotein (MDR1); read-out: Papp A-to-B, R2): 0.0949 ×10⁻⁶ cm/s
Papp B→A at 120 min, 5 μM (P-glycoprotein (MDR1); read-out: Papp B-to-A, AVG): 43.3 ×10⁻⁶ cm/s
Papp B→A at 120 min, 5 μM (P-glycoprotein (MDR1); read-out: Papp B-to-A, R1): 40.2 ×10⁻⁶ cm/s
Papp B→A at 120 min, 5 μM (P-glycoprotein (MDR1); read-out: Papp B-to-A, R2): 46.3 ×10⁻⁶ cm/s
recovery at 120 min, 5 μM (P-glycoprotein (MDR1); read-out: Recovery, A-to-B): 71.2%
recovery at 120 min, 5 μM (P-glycoprotein (MDR1); read-out: Recovery, B-to-A): 76.8%
GI50 (DI318 CSCs; [3]): 6.31e-06 M
GI50 (DI318 CSCs; [4]): 5.01e-06 M
unidirectional brain uptake constant Kin (In situ brain perfusion): > 50 × 10^–4 mL/s/g
Ki (WDR5): 5.9 ± 0.3 nM
Papp A→B [2]: 5.2 ×10⁻⁶ cm/s
Papp A→B ([2]; favorable permeability): > 2 ×10⁻⁶ cm/s

COc1cc(CN2CCc3c(cc(Cn4ccn(C)c4=N)cc3-c3ccc(F)cc3C)C2=O)cc(OC)c1 [C16, reference compound]
Brain Penetration Classification (P-glycoprotein (MDR1)): Low
Papp A→B at 120 min, 5 μM (P-glycoprotein (MDR1); read-out: Papp A-to-B, AVG): 0.715 ×10⁻⁶ cm/s
Papp A→B at 120 min, 5 μM (P-glycoprotein (MDR1); read-out: Papp A-to-B, R1): 0.556 ×10⁻⁶ cm/s
Papp A→B at 120 min, 5 μM (P-glycoprotein (MDR1); read-out: Papp A-to-B, R2): 0.875 ×10⁻⁶ cm/s
Papp B→A at 120 min, 5 μM (P-glycoprotein (MDR1); read-out: Papp B-to-A, AVG): 1.7 ×10⁻⁶ cm/s
Papp B→A at 120 min, 5 μM (P-glycoprotein (MDR1); read-out: Papp B-to-A, R1): 1.49 ×10⁻⁶ cm/s
Papp B→A at 120 min, 5 μM (P-glycoprotein (MDR1); read-out: Papp B-to-A, R2): 1.91 ×10⁻⁶ cm/s
recovery at 120 min, 5 μM (P-glycoprotein (MDR1); read-out: Recovery, A-to-B): 85.6%
recovery at 120 min, 5 μM (P-glycoprotein (MDR1); read-out: Recovery, B-to-A): 87.3%
GSEA NES against MV4:11 C16-regulated gene set ([1]; DI318, 200 nM): –2.5
GSEA NES against MV4:11 C16-regulated gene set ([1]; L0, 200 nM): –2.0
GI50 (DI318 CSCs; [3]): 7.94e-07 M
GI50 (DI318 CSCs; DI318, 0 Gy, read-out: log(GI50) (converted)): 2e-06 M
GI50 (DI318 CSCs; [4]): 1.58e-06 M
unidirectional brain uptake constant Kin (In situ brain perfusion): < 5 × 10^–4 mL/s/g
Ki (WDR5): 0.03 ± 0.01 nM
Papp A→B [2]: 0.1 ×10⁻⁶ cm/s
